Measured values published in patent publication US20130072509A1, “PTEROSTILBENE AND STATIN COMBINATION FOR TREATMENT OF METABOLIC DISEASE, CARDIOVASCULAR DISEASE, AND INFLAMMATION” (ChromaDex Inc., priority 2011, published 2013).
Like-named read-outs stand apart in the source and are kept apart here.

Tests used:
CYP1B1 = target: T1, CYP1B1 (Homo sapiens, UniProt Q16678); settings: human recombinant; cited from earlier work
T1 sequence (Q16678 1-543): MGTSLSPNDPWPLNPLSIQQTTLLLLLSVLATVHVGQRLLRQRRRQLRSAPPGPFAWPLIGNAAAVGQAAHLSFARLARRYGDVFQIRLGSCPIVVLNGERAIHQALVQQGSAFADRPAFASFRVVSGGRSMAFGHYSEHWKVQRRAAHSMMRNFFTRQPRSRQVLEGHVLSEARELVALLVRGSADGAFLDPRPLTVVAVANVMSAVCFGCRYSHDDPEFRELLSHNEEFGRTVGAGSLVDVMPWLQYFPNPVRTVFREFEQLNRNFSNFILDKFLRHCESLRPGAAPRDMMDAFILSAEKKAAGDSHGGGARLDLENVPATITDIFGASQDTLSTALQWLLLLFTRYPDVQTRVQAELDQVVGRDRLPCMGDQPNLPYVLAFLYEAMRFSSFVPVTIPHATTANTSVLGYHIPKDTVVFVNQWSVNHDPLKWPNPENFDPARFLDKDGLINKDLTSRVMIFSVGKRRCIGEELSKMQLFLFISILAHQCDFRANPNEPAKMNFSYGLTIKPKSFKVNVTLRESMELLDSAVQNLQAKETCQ

[1] = mice, 28-day subacute; 160 pound human equivalent doses of approximately 125 mg/day, 1.25 g/day and 12.5 g/day; cited from earlier work
[2] = cited from earlier work; for bioavailability: in vivo
[3] = Human clinical trial in dyslipidemia patients: lipids and blood pressure; format: in vivo
Description: The following is a general study design for human clinical trial to assess efficacy of pterostilbene, in combination with a statin, to lower cholesterol and/or lower blood pressure, among other measured endpoints including markers for oxidative stress. The study type is interventional: a randomized, double-blind, placebo controlled study. Endpoint Classification: Safety/Efficacy Study.
The purpose of this study is to evaluate whether pterostilbene alone, or a combination of pterostilbene and a statin compound, will help control cholesterol and blood pressure, as well as improve markers for oxidative stress in patients with dyslipidemia meeting inclusion criteria. The investigators will assess the safety of pterostilbene in these patients. Further, 33% of all subjects, spread randomly across all study groups, will be undergoing concurrent statin therapy but still satisfy the inclusion criteria of a previous TC≧200 mg/dL, and/or a LDL-C≧100 mg/dL.
Sixty subjects, divided into three groups: 20 per study group. Ages eligible for study: 18 to 88 years, both genders. No healthy volunteers accepted. Inclusion criteria: patients ≧18 years of age with a previous TC≧200 mg/dL, and/or a LDL-C≧100 mg/dL on either no therapy or stable therapy. Any concomitant cholesterol medication must be at a stable dose for at least 2 months prior to baseline laboratory and not listed in the exclusion criteria. Exclusion criteria: patients with significant hepatic, renal or gastrointestinal tract disease, receiving thiazolidinediones or fibric acid derivatives, current overt cardiovascular disease, women of reproductive potential not receiving birth control, and pregnant/nursing women.
Evaluation Criteria for clinical measurement: 1. Primary outcome measures: lipid laboratory markers (i.e., change in baseline TC, LDL-C, triglycerides (TG), HDL-C, non-HDL-C); 2. Secondary outcome measures: blood pressure (i.e., change in baseline systolic blood pressure and/or diastolic blood pressure); basic metabolic panel; AST (aspartate aminotransferase); ALT (alanine aminotransferase); and/or oxidative stress markers (i.e., change in baseline urine-derived markers of stress (e.g., isoprostanes: iPF2-Alpha-III/creat; iPF2-Alpha-VI/creat; 2,3 Dinor-iPF2-Alpha-III/creat)).
Subjects will be divided into three groups or arms: (1) high dose pterostilbene, 125 mg twice daily by mouth for 6 to 8 weeks; (2) low dose pterostilbene, 50 mg twice daily by mouth for 6 to 8 weeks; (3) matching placebo taken twice daily by mouth for 6 to 8 weeks; either one hour before or two hours after a meal. Further, as stated above, 33% of all subjects, spread randomly across all study groups, will be undergoing concurrent statin therapy. […]

PPAR-alpha = target: T2, PPAR-alpha (Rattus norvegicus, UniProt P37230); settings: cited from earlier work
T2 construct: endogenous in cells; host or cells: H4IIEC3 rat liver cells
T2 sequence (P37230 1-468): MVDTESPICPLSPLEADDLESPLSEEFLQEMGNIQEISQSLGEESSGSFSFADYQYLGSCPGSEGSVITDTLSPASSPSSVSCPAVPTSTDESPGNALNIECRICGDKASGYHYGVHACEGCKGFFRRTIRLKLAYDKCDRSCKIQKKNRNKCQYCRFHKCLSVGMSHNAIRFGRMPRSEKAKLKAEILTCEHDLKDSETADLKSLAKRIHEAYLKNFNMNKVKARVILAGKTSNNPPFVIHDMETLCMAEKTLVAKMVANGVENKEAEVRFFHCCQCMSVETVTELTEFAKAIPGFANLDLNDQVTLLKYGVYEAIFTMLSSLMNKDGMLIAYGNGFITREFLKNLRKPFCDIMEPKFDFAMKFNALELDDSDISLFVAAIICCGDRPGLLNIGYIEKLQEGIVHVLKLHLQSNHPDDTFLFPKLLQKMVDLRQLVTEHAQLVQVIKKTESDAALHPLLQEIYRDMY

rat smooth muscle cells = settings: in vitro; cited from earlier work
CYP1A1 = target: T3, CYP1A1 (Homo sapiens, UniProt P04798); settings: human recombinant; cited from earlier work
T3 sequence (P04798 1-512): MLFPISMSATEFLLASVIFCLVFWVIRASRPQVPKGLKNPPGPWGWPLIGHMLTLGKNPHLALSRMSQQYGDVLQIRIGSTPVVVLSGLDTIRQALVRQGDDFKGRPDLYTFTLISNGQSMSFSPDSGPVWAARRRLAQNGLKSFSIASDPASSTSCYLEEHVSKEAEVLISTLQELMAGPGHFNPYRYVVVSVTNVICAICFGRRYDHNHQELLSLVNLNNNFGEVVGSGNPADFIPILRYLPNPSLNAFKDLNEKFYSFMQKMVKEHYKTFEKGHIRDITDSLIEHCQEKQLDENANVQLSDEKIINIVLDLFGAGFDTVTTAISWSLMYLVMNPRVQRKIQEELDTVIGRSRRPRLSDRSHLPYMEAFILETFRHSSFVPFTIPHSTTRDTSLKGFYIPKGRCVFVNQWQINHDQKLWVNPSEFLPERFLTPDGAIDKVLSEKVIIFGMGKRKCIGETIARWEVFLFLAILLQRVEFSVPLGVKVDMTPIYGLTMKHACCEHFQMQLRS

H4IIEC3 rat liver cells = settings: 100 μM; cited from earlier work
[4] = after 8 weeks, oral twice daily, pterostilbene alone
[5] = 100 μM, H4IIEC3 rat liver cells

Row | Structure (SMILES) | CYP1B1 inhibition (CYP1B1) | local or systemic toxicity [1] | half life t1/2 in blood [2] [min] | bioavailability [2] | change in LDL-C level [3, 4] | change in TC level [3, 4] | reduction in diastolic blood pressure ([3]; high dose (250 mg daily), including patients receiving a statin, p<0.001) [mmHg] | reduction in systolic blood pressure ([3]; high dose (250 mg daily), including patients receiving a statin, p<0.01) [mmHg] | PPAR-alpha activation over the control (PPAR-alpha; [5]) [fold] | PPAR-alpha activation relative to 100 μM of ciprofibrate (PPAR-alpha; [5]) [fold] | PPAR-alpha activation over the control (PPAR-alpha; 300 μM, H4IIEC3 rat liver cells) [fold] | PPAR-alpha activation (in words) (PPAR-alpha; study of a group of similar stilbenes, in a manner similar to ciprofibrate) | proliferation of rat smooth muscle cells (rat smooth muscle cells) | CYP1A1 inhibition (CYP1A1) | Toxicity to cells (H4IIEC3 rat liver cells)
1 | COc1cc(/C=C/c2ccc(O)cc2)cc(OC)c1 [pterostilbene, 3,5-dimethoxy-4′-hydroxy-trans-stilbene] | shown to inhibit | no local or systemic toxicity | 74 to 105 | orally bioavailable | slight increases | slight increases | −7.3 | −7.8 | 8 | ~2 | 14 | activated PPAR-alpha | inhibit the proliferation | shown to inhibit | –
2 | Oc1ccc(C=Cc2cc(O)cc(O)c2)cc1 [resveratrol, reference compound] | – | – | 10 to 14 | poor bioavailability | – | – | – | – | – | – | – | – | – | – | toxic to cells
